The values that follow come from US9642861B2, “Methods of treating oral mucositis” (priority 2006, dated 2017).

Each structure is given as a SMILES string. Where two headings read alike, the source gives them in different places.

The format of this data set is in vivo. To be noted: for Survival (animal recorded dead in weight table): first study; for survival status noted in Animal Weights table: second study, group 3. The source says:
All animals were weighed daily and their survival recorded, in order to assess possible differences in animal weight among treatment groups as an indication for mucositis severity and/or possible toxicity resulting from the treatments.
All forty-eight (48) male Syrian Golden Hamsters were given an acute radiation dose of 40 Gy directed to their left buccal cheek pouch. This was accomplished by anesthetizing the animals and everting the left buccal pouch, while protecting the rest of the animal with a lead shield. Test materials were given either topically or by ip injection twice daily as detailed in Table 1. Mucositis was evaluated clinically starting on day 6, and continuing on alternate days until day 28. The study timeline is depicted in FIG. 1. Dose levels were determined based on the results of a previous acute toxicity study (data not shown), and the levels shown in Table 1.
Male LVG Syrian Golden Hamsters (Charles River Laboratories), aged 5 to 6 weeks, with average body weight of 84.1 g at study commencement, were used. Animals were individually numbered using an ear punch and housed in small groups of approximately 8 animals per cage. Animals were acclimatized prior to study commencement. During this period of 2 days, the animals were observed daily in order to reject animals that presented in poor condition.
The significance of these differences was evaluated by calculating the mean area under the curve for the percentage weight gain for each animal and comparing the groups using a OneWay ANOVA test. There was a significant difference between the control group and group 3 treated by ip injection with M40403 twice daily (30 mg/kg) on days −1 to 15 (P<0.001). There was also a significant difference between the control group and the group treated by ip injection with M40403 twice daily at 30 mg/kg/dose from day −1 to day 3 (P=0.018). No other significant differences were seen. […] Many of the groups with a significant reduction in weight gain are the same groups in which animal deaths were observed.

As to `[Cl-].[Cl-].[Mn+2].c1cc2nc(c1)CN[C@@H]1CCCC[C@H]1NCCN[C@@H]1CCCC[C@H]1NC2` [M40403], the “Survival (animal recorded dead in weight table)” value reads like this: (Group 2, day 0) “dead”; (Group 5, day 0) “dead”; (Group 6, day 0) “dead”. The “deaths during the study” value is “died on day 12” (group 3: ip 30 mg/kg bid day −1 to 15, hamster 19, after extended failure to gain weight) and “two” (group 6: ip 30 mg/kg bid day −1 to 3, appeared to be anesthesia overdose). Besides, under “hamster, in vivo, ip, 3 mg/kg”, the “average weight gain, % of starting weight by day 28” value was 66.0%. Moreover, the “weight gain during dosing” value (hamster, in vivo, ip, 30 mg/kg) was “general lack of weight gain during dosing”. In addition, the “toxicity based on mortality and body weight” value (ip injections twice daily at 30 mg/kg) is “appear to show some toxicity”. Also, the “survival status noted in Animal Weights table” value (animal 19, day 12) was “dead” and the “survival status noted in Animal Weights table” value (animal 23, day 0) is “dead”.
